{
  "source": "patent US20170072007A1",
  "about": "“PHANTOM PHENOMENA TREATMENT” (OTOLANUM AG, priority 2005, published 2017)",
  "key": {"[1]": {"tested_on": "BDNF exon IV expression in cochlear neurons", "experiment": "Salicylate-induced acute tinnitus: effect of test substance on BDNF/c-fos expression in cochlear neurons (RT-PCR)", "format": "in vivo, rat"}, "[2]": {"tested_on": "Arc expression in auditory cortex", "experiment": "Salicylate-induced acute tinnitus: effect of test substance on gene expression in the auditory cortex (RT-PCR)", "format": "in vivo, rat", "conditions": "systemic 0.5 mg/kg, 2.5 hours after 350 mg/kg salicylate, n=12, p<0.05", "description": "Rnase H reverse transcriptase according to the Invitrogen protocol.\nTwo and half hours after the induction of acute tinnitus by injection of 350 mg/kg salicylate, the animals received systemic administration of midazolam (Dormicum, Roche, Grenzach-Wyhlen, Germany) (0.5 mg/kg of body weight), and gene expression was investigated after removal of organs with the aid of RT-PCR. […] Statistical analysis was carried out with Student's T test; *=p<0.05.\nIn a further experiment corresponding to the above, a GABA receptor agonist was administered, under conditions which were otherwise identical, not systemically but locally into the niche of the round window."}, "[3]": {"conditions": "before and 20 hours after local salicylate, 5 μl, 70 mg/kg, n=5", "description": "Adult female Wistar rats weighing between 280 and 300 grams were used for the experiments. The treatment and handling of these animals took place in conformity with the institutional guidelines of Tübingen University, Tierforschungsanstalt.\n(§1) The rats were anesthetized intraperitoneally by the method of Guitton, M. J. et al. (2003), Salicylate induces tinnitus through activation of cochlear NMDA receptors, J. Neurosci. 23, pages 3944 to 3952, in order to place a so-called gel foam (Gelita Tampon; B. Braun Medical, Melsungen, Germany) over the round window of both ears. The gel foam was impregnated as indicated with salicylate, which was diluted in artificial perilymph solution (70 mg/ml), or with the corresponding volume of artificial perilymph alone. The gel foam was in the niche of the round window as described; Guitton J. et al. (loc. cit.). The salicylate was locally administered thus for 20 hours. After this time, the animals were sacrificed and the cochlea and the auditory cortex were removed.\nThe anesthesia of the animals and the ABR screening was carried out as described previously; cf. Knipper, M. et al. (2000), loc. cit.; Schimmang, T. et al. (2003), Lack of BDNF and trkB signalling in the postnatal cochlea leads to a spatial reshaping of innervation along the tonotopic axis and hearing loss, Development 130, pages 4741 to 4750. […]"}, "[4]": {"tested_on": "c-fos, BDNF exon-III and BDNF exon IV in cochlear spiral ganglia", "conditions": "local 5 μl 70 mg/ml and systemic 350 mg/kg, versus artificial perilymph", "method": "Carbon dioxide was used for deep anesthesia of the animals, which were then decapitated. The cochleae were isolated and prepared as described previously; cf. […] Briefly, the cochleae were fixed by immersion in 2% paraformaldehyde, 125 mM sucrose in 100 mM phosphate-buffered saline (PBS), pH 7.4, for two hours and, following the fixation, decalcified in rapid bond decalcifier (#904687, Eurobio, Fisher-Scientific, 61130 Nidderau, Germany) for 45 minutes, subsequently followed by incubation in 25% sucrose, 1 mM protease inhibitor (Pefabloc, Roche) in Hanks buffered saline overnight. Following the overnight incubation, the cochleae were embedded in O.C.T. compound (Miles Laboratories, Elkhart, Ind., USA). The tissues were then cryosectioned with a thickness of 10 μm for the in situ hybridization, stored on SuperFrost*/plus slides and stored at −20° C. before use.\nGenomic DNA from rat liver tissue was isolated using the Easy DNA kit from Invitrogen in accordance with the manufacturer's information. A polymerase chain reaction was carried out in order to amplify all four non-coding 5′ exons of the BDNF gene.\nIn the PCR reaction, the genomic DNA was first denatured at 94° C. for four minutes, followed by 30 cycles of one minute at 94° C., one minute at 55° C. and one minute at 72° C. The extension reaction was carried out at 70° C. for 10 minutes. […]"}, "[5]": {"tested_on": "c-fos, BDNF exon-III and BDNF exon IV transcripts in cochlear tissue", "description": "as §1"}, "[6]": {"tested_on": "c-fos, BDNF exon-III, BDNF exon-IV and Arc in auditory cortex", "method": "Total RNA was isolated using the total RNeasy kit from Qiagen both from the cochlea and from brain tissue and was treated with DNase (Ambion) in order to remove DNA contaminants. The RNA was then purified and the concentration was determined by spectrometric measurements. Reverse transcription of the brain tissue was carried out in a reaction volume of 20 μl using 1 μg of total RNA as template and [sequence] II Rnase H reverse transcriptase according to the Invitrogen protocol. Because of the limited amount of RNA in the cochlear tissues, Qiagen Senscript reverse transcriptase was used, as described in the Qiagen protocol, using 50 ng of total RNA as template. The number of cycles and the annealing temperature for the PCR was optimized so that the signals obtained for BDNF, c-fos and glyceraldehyde-3-phosphate dehydrogenase (GAPDH) were not saturated.\nThe PCR was carried out in a final reaction volume of 25 μl, using both primers for GAPDH and the activity-dependent genes simultaneously. In this duplex PCR reaction, a housekeeping gene in the same PCR reaction represents an internal control, so that the intensity of the activity-dependent gene can be compared unambiguously with the control and the treated samples. PCR ready-to-go beads from Amersham Pharmacia were used in order to ensure a standardization of the PCR conditions and to reduce contamination during pipetting. Finally, the PCR products were analyzed in a 2% agarose gel which was visualized using an ethidium bromide stain and densitometric analysis using an Alpha Imager 2200 from Biometra. The intensity of the amplified activity-dependent gene was normalized for each reaction to the level of the coamplified GAPDH. The amplification conditions for arc, BDNF, c-fos and GAPDH were for the initial denaturation phase of 94° C. for three minutes, 30 cycles each of one minute of denaturation (94° C.), one minute of annealing (54° C.), 1.5 minutes of extension (72° C.) and a final extension phase of ten minutes at 72° C.\nThe auditory cortices investigated were obtained from animals in which the cochlea were investigated for the dose-dependent effect of salicylate, the mRNA was isolated and an RT-PCR was carried out as described under Material and Methods."}, "[7]": {"conditions": "increasing amounts of salicylate locally into round window niche, n=3"}},
  "note": "“Also recorded” adds a separate entry of the source. Like-named read-outs stand apart in the source and are kept apart here.",
  "data": [
    {"compound": "COC(=O)C1=C(C)NC(C)=C(C(=O)OC(C)C)C1c1cccc2nonc12", "note": "(centres unmarked) [isradipine]", "values": [
      {"measurement": "salicylate-induced upregulation of BDNF (exon IV) in cochlear neurons", "setting": "[1]; 10 μl of 10 mM solution locally at round window 22 hours before tissue removal, salicylate 350 mg/kg systemic 3 hours before", "value": "inhibited"}
    ]},
    {"compound": "Cc1ncc2n1-c1ccc(Cl)cc1C(c1ccccc1F)=NC2", "note": "[midazolam]", "values": [
      {"measurement": "effect of salicylate on the expression of Arc in the auditory cortex", "setting": "[2]", "value": "significant reduction"},
      {"measurement": "effect of salicylate on the expression of BDNF exon-IV in cochlear neurons", "setting": "[1]; systemic 0.5 mg/kg, 2.5 hours after 350 mg/kg salicylate, n=7, p<0.05", "value": "significant reduction; also recorded: significantly reduced; also recorded: inhibited"},
      {"measurement": "effect on salicylate-changed expression of c-fos", "setting": "[1]; systemic 0.5 mg/kg, 2.5 hours after 350 mg/kg salicylate, n=7 to 12", "value": "remains incapable of being influenced"}
    ]},
    {"compound": "O=C(O)c1ccccc1O", "note": "[salicylate]", "values": [
      {"measurement": "frequency-specific ABR screening", "setting": "[3]", "value": "no loss of hearing"},
      {"measurement": "hybridization signals for c-fos, BDNF exon-III and BDNF exon IV in the middle basal cochlear turn", "setting": "[4]", "value": "significantly increased"},
      {"measurement": "increase in the expression of BDNF exon-IV (densitometric analysis)", "setting": "[5]; cochlea, n=8, p<0.05", "value": "49±12", "unit": "%"},
      {"measurement": "increase in the expression of c-fos (densitometric analysis)", "setting": "[5]; cochlea, n=8, p<0.05", "value": "69±11", "unit": "%"},
      {"measurement": "c-fos expression in cochlear tissue", "setting": "[5]; gel foam local, 5 μl, 70 mg/ml, found at 20 hours, not at three hours", "value": "significant upregulation"},
      {"measurement": "expression of the BDNF exon-IV transcript in cochlear neurons", "setting": "[5]; [7]", "value": "increased"},
      {"measurement": "expression of BDNF exon-IV and c-fos in cochlear neurons", "setting": "[5]; systemic 350 mg/kg salicylate", "value": "elevated expression"},
      {"measurement": "c-fos expression in cochlear tissue", "setting": "[5]; systemic i.p. 350 mg/kg of body weight, after three hours", "value": "upregulation"},
      {"measurement": "decrease in the expression of BDNF exon-IV (densitometric analysis)", "setting": "[6]; auditory cortex, n=8, p<0.05", "value": "49±12", "unit": "%"},
      {"measurement": "decrease in the expression of c-fos (densitometric analysis)", "setting": "[6]; auditory cortex, n=8, p<0.05", "value": "69±11", "unit": "%"},
      {"measurement": "expression of Arc in the auditory cortex", "setting": "[6]; [7]", "value": "decreased"},
      {"measurement": "expression of c-fos, BDNF exon-III and BDNF exon-IV in the auditory cortex", "setting": "[6]; local administration, all dosages of salicylate", "value": "reduction"},
      {"measurement": "expression of Arc in the primary auditory cortex", "setting": "[6]; systemic 350 mg/kg salicylate", "value": "decrease"}
    ]}
  ]
}
